Test results reported in article PMC8597039, “Fluorescent Amino Acid Initiated de novo Cyclic Peptides for the Label‐Free Assessment of Cell Permeability” (Chemmedchem, 2021).
Where a SMILES comes first, the peptide text is derived from it. [ ]: non-standard residue; d: D form. Ala(azulen-1-yl) = N[C@@H](Cc1ccc2cccccc1-2)C(=O)O; Trp(4-CN) = N#Cc1cccc2[nH]cc(C[C@H](N)C(=O)O)c12

Test system: U2OS cells
Assay: Live cell fluorescence microscopy of peptide uptake
Conditions: 37 °C, excitation 340 nm
[1] = 50 µM peptide in OPTI-MEM, 20 min, 0.5% DMSO, washed once, ET460/50m (4CNW) or ET395/25x (AzAla) emission filter

Protocol: To evaluate their suitability for tracking peptide penetration into cells, 4CNW/AzAla were appended onto the N‐terminus of a well‐characterized cell penetrating peptide, TAT‐NLS P3 (tryptophan was included as a negative control). Human bone osteosarcoma epithelial cells (U2OS) were incubated with peptides 4CNW‐P3, AzAla‐P3, W‐P3 for 20 minutes at a concentration of 50 μM in OPTI‐MEM. A moderate concentration (50 μM) of peptide was required for detection due to current limitations in the sensitivity of our microscopy system. Cells were then washed once with OPTI‐MEM and imaged on a Nikon Ti Eclipse inverted microscope with fluorescence excitation at 340 nm. An ET460/50 m single bandpass emission filter was used to image 4CNW‐P3 and a ET395/25x single bandpass emission filter was used to image AzAla‐P3.
Figure 3 Uptake of 4CNW/AzAla labelled peptides by living cells. a Live cell fluorescence microscopy images of U2OS cells after 20 min incubation with linear/cyclic peptides (50 μM). Fluorescence of peptides is shown in blue (4CNW) or cyan (AzAla). Scale bar: 20 μm. Images were obtained by using fluorescence excitation at 340 nm with a ET460/50 m (4CNW) or ET395/25x (AzAla) single bandpass emission filter and a Plan Fluor 60x/A1.2 WI. b Live cell fluorescence microscopy images of U2OS cells after 24 h incubation with 4CNW‐P4 peptide (50 μM). Fluorescence of peptides is shown in blue (4CNW). Scale bar: 20 μm. Images were obtained by using fluorescence excitation at 340 nm with a ET460/50 m (4CNW) single bandpass emission filter and a Plan Fluor 40X/1.3NA objective. c Flow cytometry of U2OS cells incubated with DMSO, 4CNW‐P3 or 4CNW‐P4 at the indicated times. Fluorescence of a single cell suspension was acquired with a 355 nm laser, 450‐50 detector and FACS‐Diva software. Numbers indicated in graphs show percentage of positive cells.
To assess if 4CNW‐P4 was penetrating cells, U2OS cells were incubated with 50 μM peptide for 24 h. Cells were then imaged by fluorescence microscopy using the same conditions as described above.

Compound | intracellular fluorescence (cell uptake) [1] | intracellular fluorescence (cell uptake) (50 µM peptide, 24 h, ET460/50m emission filter)
CC(=O)N[C@@H](Cc1c[nH]c2cccc(C#N)c12)C(=O)NCC(=O)N[C@@H](CCCNC(=N)N)C(=O)N[C@@H](CCCCN)C(=O)N[C@@H](CCCCN)C(=O)N[C@@H](CCCNC(=N)N)C(=O)N[C@@H](CCCNC(=N)N)C(=O)N[C@@H](CCC(N)=O)C(=O)N[C@@H](CCCNC(=N)N)C(=O)N[C@@H](CCCNC(=N)N)C(=O)N[C@@H](CCCNC(=N)N)C(=O)N1CCC[C@H]1C(=O)N[C@@H](CCC(N)=O)C(=O)N1CCC[C@H]1C(=O)N[C@@H](CCCCN)C(=O)N[C@@H](CCCCN)C(=O)N[C@@H](CCCCN)C(=O)N[C@@H](CCCNC(=N)N)C(=O)N[C@@H](CCCCN)C(=O)N[C@H](C(N)=O)C(C)C [4CNW‐P3] (Ac-[Trp(4-CN)]GRKKRRQRRRPQPKKKRKV-NH2) | considerable intracellular fluorescence | 
CC[C@H](C)[C@@H]1NC(=O)[C@H](Cc2c[nH]c3ccccc23)NC(=O)[C@H](Cc2c[nH]c3cccc(C#N)c23)NC(=O)[C@H](CC(=O)O)NC(=O)CNC(=O)[C@H](CO)NC(=O)[C@H](CC(=O)O)NC(=O)[C@H](CC(=O)O)NC(=O)[C@H](CC(C)C)NC(=O)[C@H](Cc2ccc(O)cc2)NC(=O)[C@H](CC(C)C)NC(=O)[C@@H](Cc2c[nH]c3ccccc23)NC(=O)CSC[C@@H](C(=O)NCC(N)=O)NC1=O [4CNW‐P4] |  | appreciable intracellular fluorescence
CC(=O)N[C@@H](Cc1ccc2cccccc1-2)C(=O)NCC(=O)N[C@@H](CCCNC(=N)N)C(=O)N[C@@H](CCCCN)C(=O)N[C@@H](CCCCN)C(=O)N[C@@H](CCCNC(=N)N)C(=O)N[C@@H](CCCNC(=N)N)C(=O)N[C@@H](CCC(N)=O)C(=O)N[C@@H](CCCNC(=N)N)C(=O)N[C@@H](CCCNC(=N)N)C(=O)N[C@@H](CCCNC(=N)N)C(=O)N1CCC[C@H]1C(=O)N[C@@H](CCC(N)=O)C(=O)N1CCC[C@H]1C(=O)N[C@@H](CCCCN)C(=O)N[C@@H](CCCCN)C(=O)N[C@@H](CCCCN)C(=O)N[C@@H](CCCNC(=N)N)C(=O)N[C@@H](CCCCN)C(=O)N[C@H](C(N)=O)C(C)C [AzAla‐P3] (Ac-[Ala(azulen-1-yl)]GRKKRRQRRRPQPKKKRKV-NH2) | considerable intracellular fluorescence | 
